We go through 24 compounds from patent US4699924A, “Skin treatment composition” (priority 1983, dated 1987).

By logP is commonly meant a log measure of how a compound divides between an organic and an aqueous phase.

SMILES strings stand for the structures. Read-outs that look alike come from different tables or passages of the source.

In data set [1] the test system is guinea pig foot pad stratum corneum. The data set can be described thus: Increase in extensibility of guinea pig foot pad stratum corneum. Details: Increase in stratum corneum extensibility: unit not given here. To be noted: for Increase in stratum corneum extensibility: 0.2 M 2-hydroxyoctanoic acid + additive at 5% w/w, 3 hours at 20° C., relative humidity 65%. As for the experimental part: The ability of an additive to enhance the delivery to skin of 2-hydroxyoctanoic acid was measured in terms of the increase in extensibility of guinea pig foot pad stratum corneum following contact with each solution.
In this experiment, pieces of guinea pig foot pad stratum corneum, equilibrated at a relative humidity of 65%, were immersed in each solution for 3 hours at 20° C., and then removed, blotted dry and re-equilibrated at the same relative humidity. The extensibility of each piece of guinea pig foot pad stratum corneum was measured before and after this treatment in an extensiometer according to the method described in European Pat. No. 7785.

The next data set is described as follows: physchem. To be noted: octanol/water.
Data set [2] in a line: Cloud point temperature of a 0.025M aqueous solution of polyoxyethylene(8)nonylphenyl ether with 5% by weight additive. In kind it is physicochemical. As for the experimental part: An activity enhancer is accordingly defined as a non-electrolyte which is capable, at a concentration of 5% by weight of increasing the cloud point temperature of a 0.025M aqueous solution of polyoxyethylene(8)nonylphenyl ether by at least 10° C. Preferably the activity enhancer is one which is capable of increasing the cloud point temperature by at least 15° C., most preferably by at least 20° C.
It should be explained that the "cloud point" is a measure of the inverse solubility of a nonionic surfactant with temperature and can be determined by heating a standard clear aqueous solution of the nonionic surfactant until the solution becomes visibly cloudy and then measuring the temperature.
The cloud point temperature can conveniently be determined automatically using the equipment and method described by Baum et al in Mat. Res. Std. 4 26 (1964).
Examples of suitable compounds functioning as activity enhancers, together with the respective elevated cloud point temperature obtained in each case when using the standard test defined hereinbefore are listed below in Table 1.

Data set [3] is described as follows: Dielectric constant of oils measured in a liquid state. In kind it is physicochemical. The source says:
The product can also optionally comprise an oil, fat or wax, herein referred to as "oil" having a dielectric constant of not greater than 3.0.
Examples of preferred "oils", when employed, together with their dielectric constants measured when they are in a liquid state are given below: […]

For data set [4] the following is noted: as recorded in Handbook of Chemistry & Physics, 57th Edition 1976-77; cited from earlier work.
Data set [5] relates to guinea pig stratum corneum. Nature of the data set: Delivery of C14 labelled phenol to guinea pig stratum corneum. To be noted: in words.
Description: The phenol used in the preparation of each emulsion was C^14 labelled phenol.
Pieces of guinea pig stratum corneum were immersed in each of the above emulsions for 20 hours, after which they were removed, blotted dry and the amount of phenol retained by the corneum was measured by a radio tracer technique using a standard methodology.
Setting [6] is: Table 2, compound which is not an activity enhancer, 5% by weight.
Setting [7] is: Table 2, compound which is not an activity enhancer, 5% by weight, control 33.5 °C.
Setting [8] is: table of extensibility results, additive at 5% w/w, in °C.
[9] abbreviates: Table 1, activity enhancer 5% by weight, 0.025 M polyoxyethylene(8)nonylphenyl ether.
[10] abbreviates: Table 1, activity enhancer 5% by weight, control 33.5 °C., in °C.

`CCCCCCC(O)C(=O)O` (stereo not drawn) [2-hydroxyoctanoic acid]: the “Increase in stratum corneum extensibility” value in data set [1] amounted to 5. The “Increase in stratum corneum extensibility / delivery to skin, in words” value in data set [1] (conclusion in words) is given as “greatly enhanced”. In “physchem”, this compound registered a logP of 2.24.
In turn, `CCCCCCC(=O)C(=O)O` [2-ketooctanoic acid] had a logP in the data set “physchem” of 3.2.
With `CN1C(=O)NC(=O)C(C)(C)C1=O` [5,5-dimethyl, 1-methyl barbituric acid], the logP in the data set “physchem” was determined as 1.09.
Consider `OCCO` [Ethan-1,2-diol], for which, in data set [1], the “Increase in stratum corneum extensibility” value was 5. For the same compound, the Cloud point temperature in data set [2] (setting [6]) was 33.0 °C. Further, the “Elevation of cloud point temperature” value in data set [2] (setting [7]) was -0.5 °C; in data set [2] (setting [8]), -0.5.
On to `CC(O)CCC(C)O` (stereo not drawn) [Hexan-2,5-diol], for which the “Increase in stratum corneum extensibility” value in data set [1] was 37.0. Further, the Cloud point temperature in data set [2] (setting [9]) was 52.0 °C. Moreover, the “Elevation of cloud point temperature” value in data set [2] (setting [10]) and in data set [2] (setting [8]) was 18.5 throughout.
Turning to `O=Cc1ccccc1O` [O--hydroxybenzaldehyde], the logP in the data set “physchem” was found to be 1.7.
Take `CCCCCCCCO` [Octanol]: the Dielectric constant in data set [3] came out at 10.3.
For `CC(O)CC(C)O` (stereo not drawn) [Pentan-2,4-diol], the “Increase in stratum corneum extensibility” value in data set [1] is listed as 17.0. Besides, the Cloud point temperature in data set [2] (setting [9]) was 48.0 °C. Further, the “Elevation of cloud point temperature” value in data set [2] (setting [10]) and in data set [2] (setting [8]) was 14.5 in each case.
Consider `OCC(O)CO` [Propan-1,2,3-triol], for which the “Increase in stratum corneum extensibility” value in data set [1] is listed as 5. In data set [2] (setting [6]), the Cloud point temperature turned out to be 32.2 °C. Besides, the “Elevation of cloud point temperature” value in data set [2] (setting [7]) is -1.3 °C; in data set [2] (setting [8]), -1.3. Also, the “Effect on the cloud point temperature of nonionic surfactants” value in data set [2] (screening of non-electrolytes, in words) is “reduce the cloud point temperature”.
`CC(O)CO` (stereo not drawn) [Propan-1,2-diol]: the “Increase in stratum corneum extensibility” value in data set [1] is on record as 12.6. In addition, the Cloud point temperature in data set [2] (setting [6]) turned out to be 39.0 °C. Besides, the “Elevation of cloud point temperature” value in data set [2] (setting [7]) was found to be 5.5 °C; in data set [2] (setting [8]), 5.5.
In “physchem”, `Nc1ncnc2c1ncn2[C@@H]1O[C@H](COP(=O)(O)OP(=O)(O)O)[C@@H](O)[C@H]1O` [adenosine diphosphate] displayed a logP of 0.89.
The compound `Nc1ncnc2c1ncn2[C@@H]1O[C@H](COP(=O)(O)OP(=O)(O)OP(=O)(O)O)[C@@H](O)[C@H]1O` [adenosine triphosphate] showed a logP in the data set “physchem” of 1.64.
In “physchem”, `COc1ccc2c3c1O[C@H]1[C@@H](O)C=C[C@H]4[C@@H](C2)N(C)CC[C@@]341` [codeine, reference compound] returned a logP of 1.01.
Consider `CCCCC/C=C\C/C=C\CCCCCCCC(=O)O` [linoleic acid], for which the Dielectric constant in data set [4] is 2.71.
For the compound `CCCCCCCCCC` [n-decane], the Dielectric constant in data set [4] is 1.99.
For the compound `CCCCCCCCCCCC` [n-dodecane], the Dielectric constant in data set [4] is on record as 2.02.
Compound `CCCCCCCCCCCCCCCC` [n-hexadecane] yielded a Dielectric constant in data set [3] of less than 3.0.
In data set [3], `CCCCCCCCCCCCCCCCCC` [n-octadecane] had a Dielectric constant of less than 3.0.
Consider `CCCCCCCCCCCCCC` [n-tetradecane], for which the Dielectric constant in data set [3] was less than 3.0.
Regarding `CCCCCCCC/C=C\CCCCCCCC(=O)O` [oleic acid], the Dielectric constant in data set [4] is given as 2.46.
As to `Oc1ccccc1` [phenol], the “Amount of phenol delivered to the skin relative to ordinary emulsion (Control)” value in data set [5] is given as “enhanced when a gel phase is present”.
`COc1cc(NS(=O)(=O)c2ccc(N)cc2)ncn1` [sulphamonomethoxine, reference compound]: in the data set “physchem”, the logP is 0.85.
For the compound `Nc1ccc(S(=O)(=O)Nc2ccnn2-c2ccccc2)cc1` [sulphaphenzole, reference compound], the logP in “physchem” is 1.57.
The same measure, in the same setting: the value for `COC1=CC=C2[C@H]3Cc4ccc(OC)c5c4[C@@]2(CCN3C)[C@H]1O5` [thebaine] was 1.91.
